{"source": "patent US7700786B2", "about": "“Pyrazole derivative, intermediate therefor, processes for producing these, and herbicide containing these as active ingredient” (Sagami Chemical Research Center, priority 2001, dated 2010)", "key": {"Monochoria vaginalis": {"system": "Monochoria vaginalis", "test": "Herbicidal efficacy test by pre-emergence treatment under submergence condition; on Herbicidal efficacy Cd: key: 1 shows no influence; 5 shows complete die; on Herbicidal efficacy Ea: key: 1 shows no influence; 5 shows complete die; on Herbicidal efficacy Mv: key: 1 shows no influence; 5 shows complete die", "assay_type": "in vivo", "conditions": "15th day after treatment, ratings of 1 to 5"}, "[1]": {"system": "annual broadleaf weeds such as Lindernia procumbens, Rotala indica and Elatine triandra", "test": "Herbicidal efficacy test by pre-emergence treatment under submergence condition", "assay_type": "in vivo", "conditions": "15th day after treatment, ratings of 1 to 5", "description": "(§3) A 1/10,000-are pot was filled with paddy field soil, and, after plowing, seeds of Echinochloa oryzicola, Cyperus difformis, Monochoria vaginalis, Scirpus juncoides, Eleocharis acicularis and other annual broadleaf weeds such as Lindernia procumbens, Rotala indica and Elatine triandra were sown. Rice (oryza sativa) seedlings (cultiver “Koshihikari”) at a 2.5-leaf stage were transplanted and kept under a submergence condition. After one day, the wettable powder or emulsifiable concentrate of the compound of the present invention, prepared according to Preparation Example, was diluted and dropped on a water surface at a predetermined dose."}, "[2]": {"system": "Rice (oryza sativa) seedlings (cultiver Koshihikari)", "conditions": "in vivo", "description": "as §3"}, "Eleocharis acicularis": {"system": "Eleocharis acicularis", "test": "Herbicidal efficacy test by pre-emergence treatment under submergence condition", "assay_type": "in vivo", "conditions": "15th day after treatment, ratings of 1 to 5"}, "Amaranthus viridis [3]": {"system": "Amaranthus viridis", "test": "Herbicidal efficacy test by foliar treatment after germination under upland field condition; on Herbicidal activity Av: key: 1 shows no influence; 5 shows complete die; on Herbicidal activity Ca: key: 1 shows no influence; 5 shows complete die", "assay_type": "in vivo", "conditions": "dose 1 kg/ha, rated 1 to 5 on the 14th day after treatment", "from_the_text": "(§1) A vat having an area of 5×10 cm^2 and a depth of 5 cm was filled with upland field soil, and seeds of Chenopodium album, Echinochloa crus-galli, Amaranthus viridis and Abutilon theophrasti were sown thereon and covered with soil by a depth of 0.5 cm. Water was sprayed as required to grow them for 14 days."}, "Echinochloa crus-galli [4]": {"system": "Echinochloa crus-galli", "test": "Herbicidal efficacy test by foliar treatment after germination under upland field condition", "assay_type": "in vivo", "conditions": "dose 1 kg/ha, rated 1 to 5 on the 14th day after treatment", "from_the_text": "as §1"}, "Chenopodium album [5]": {"system": "Chenopodium album", "test": "Herbicidal efficacy test by foliar treatment after germination under upland field condition", "assay_type": "in vivo", "conditions": "dose 1 kg/ha, rated 1 to 5 on the 14th day after treatment", "from_the_text": "as §1"}, "Digitaria ciliaris": {"system": "Digitaria ciliaris", "test": "Herbicidal efficacy test by soil treatment before germination under upland field condition", "assay_type": "in vivo", "conditions": "dose 1 kg/ha; 21st day after treatment; ratings of 1 to 5", "from_the_text": "(§2) A vat having an area of 5×10 cm^2 and a depth of 5 cm was filled with upland field soil, and seeds of Chenopodium album, Echinochloa crus-galli, Amaranthus viridis, Digitaria ciliaris and sweet corn (Zea mays) were sown thereon and covered with soil by a depth of 0.5 cm."}, "Amaranthus viridis [6]": {"system": "Amaranthus viridis", "test": "Herbicidal efficacy test by soil treatment before germination under upland field condition", "assay_type": "in vivo", "conditions": "dose 1 kg/ha; 21st day after treatment; ratings of 1 to 5", "from_the_text": "as §2"}, "Echinochloa crus-galli [7]": {"system": "Echinochloa crus-galli", "test": "Herbicidal efficacy test by soil treatment before germination under upland field condition", "assay_type": "in vivo", "conditions": "dose 1 kg/ha; 21st day after treatment; ratings of 1 to 5", "from_the_text": "as §2"}, "Chenopodium album [8]": {"system": "Chenopodium album", "test": "Herbicidal efficacy test by soil treatment before germination under upland field condition", "assay_type": "in vivo", "conditions": "dose 1 kg/ha; 21st day after treatment; ratings of 1 to 5", "from_the_text": "as §2"}, "sweet corn (Zea mays)": {"system": "sweet corn (Zea mays)", "test": "Injury to corn, soil treatment before germination under upland field condition", "assay_type": "in vivo", "conditions": "dose 1 kg/ha; 21st day after treatment; ratings of 1 to 5", "from_the_text": "as §2"}, "Scirpus juncoides": {"system": "Scirpus juncoides", "test": "Herbicidal efficacy test by pre-emergence treatment under submergence condition", "assay_type": "in vivo", "conditions": "15th day after treatment, ratings of 1 to 5", "description": "as §3"}, "Echinochloa oryzicola": {"system": "Echinochloa oryzicola", "test": "Herbicidal efficacy test by pre-emergence treatment under submergence condition", "assay_type": "in vivo", "conditions": "15th day after treatment, ratings of 1 to 5", "description": "as §3"}, "Cyperus difformis": {"system": "Cyperus difformis", "test": "Herbicidal efficacy test by pre-emergence treatment under submergence condition", "assay_type": "in vivo", "conditions": "15th day after treatment, ratings of 1 to 5", "description": "as §3"}, "Abutilon theophrasti": {"system": "Abutilon theophrasti", "test": "Herbicidal efficacy test by foliar treatment after germination under upland field condition", "assay_type": "in vivo", "conditions": "Dc: Digitaria ciliaris (table footnote; method names Abutilon theophrasti), dose 1 kg/ha, rated 1 to 5 on the 14th day after treatment"}}}
{"compound": "Cc1cc(Oc2c(Cl)cc(C(F)(F)F)cc2Cl)nn1C(=O)NCC1CCCO1", "note": "(stereo not shown) [Compound 3-183]; on Herbicidal activity Av: key: 1 shows no influence; 5 shows complete die; on Herbicidal activity Ca: key: 1 shows no influence; 5 shows complete die", "values": [{"measurement": "Herbicidal efficacy Mv", "setting": "Monochoria vaginalis; dose 0.5 kg/ha", "value": 5}, {"measurement": "Herbicidal efficacy Mv", "setting": "Monochoria vaginalis; dose 1 kg/ha", "value": 5}, {"measurement": "Herbicidal efficacy Blw", "setting": "[1]; dose 0.5 kg/ha", "value": 5}, {"measurement": "Herbicidal efficacy Blw", "setting": "[1]; dose 1 kg/ha", "value": 5}, {"measurement": "Injury Os", "setting": "[2]", "value": 2}, {"measurement": "Herbicidal efficacy Ea", "setting": "Eleocharis acicularis; dose 0.5 kg/ha", "value": 5}, {"measurement": "Herbicidal efficacy Ea", "setting": "Eleocharis acicularis; dose 1 kg/ha", "value": 5}, {"measurement": "Herbicidal activity Av", "setting": "Amaranthus viridis [3]", "value": 5}, {"measurement": "Herbicidal activity Ec", "setting": "Echinochloa crus-galli [4]", "value": 5}, {"measurement": "Herbicidal activity Ca", "setting": "Chenopodium album [5]", "value": 5}, {"measurement": "Herbicidal activity Dc", "setting": "Digitaria ciliaris", "value": 4}, {"measurement": "Herbicidal activity Av", "setting": "Amaranthus viridis [6]", "value": 5}, {"measurement": "Herbicidal activity Ec", "setting": "Echinochloa crus-galli [7]", "value": 3}, {"measurement": "Herbicidal activity Ca", "setting": "Chenopodium album [8]", "value": 5}, {"measurement": "Injury Zm", "setting": "sweet corn (Zea mays)", "value": 1}, {"measurement": "Herbicidal efficacy Sj", "setting": "Scirpus juncoides; dose 0.5 kg/ha", "value": 5}, {"measurement": "Herbicidal efficacy Sj", "setting": "Scirpus juncoides; dose 1 kg/ha", "value": 5}, {"measurement": "Herbicidal efficacy Eo", "setting": "Echinochloa oryzicola; dose 0.5 kg/ha", "value": 5}, {"measurement": "Herbicidal efficacy Eo", "setting": "Echinochloa oryzicola; dose 1 kg/ha", "value": 5}, {"measurement": "Herbicidal efficacy Cd", "setting": "Cyperus difformis; dose 0.5 kg/ha", "value": 5}, {"measurement": "Herbicidal efficacy Cd", "setting": "Cyperus difformis; dose 1 kg/ha", "value": 5}, {"measurement": "Herbicidal activity Dc", "setting": "Abutilon theophrasti", "value": 5}]}
